Test results reported in patent publication US6737383B1, “Herbicidal oxadiazolidines” (priority 1999, dated 2004).

Experiments:
[1] = tested on: wild oat; assay: Test B pre/postemergence wild oat; type: in vivo, Avena fatua; settings: for Wild oats plant response rating: scale of 0 to 10 where 0 is no effect and 10 is complete control
Procedure, shortened: (§1)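 Herbicidal effect was estimated by eye on a ten-point control scale after plants spent twelve to sixteen days in a greenhouse following soil or foliar treatment. Foliar sprays targeted plants at one to four leaves; all doses were formulated in a non-phytotoxic solvent with surfactant.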

[2] = tested on: blackgrass; assay: Test B pre/postemergence blackgrass; type: in vivo, Alopecurus myosuroides
Procedure, shortened: as §1

[3] = tested on: bedstraw; assay: Test B pre/postemergence bedstraw; type: in vivo, Galium aparine
Procedure, shortened: as §1

[4] = tested on: sugar beet; assay: Test B pre/postemergence sugar beet; type: in vivo, Beta vulgaris; settings: for Sugarbeets plant response rating: scale of 0 to 10 where 0 is no effect and 10 is complete control
Procedure, shortened: as §1

[5] = tested on: cocklebur; assay: Test B pre/postemergence cocklebur; type: in vivo, Xanthium strumarium; settings: for Cocklebur plant response rating: scale of 0 to 10 where 0 is no effect and 10 is complete control
Procedure, shortened: as §1

[6] = tested on: pigweed; assay: Test B pre/postemergence pigweed; type: in vivo, Amaranthus retroflexus; settings: for Redroot pigweed plant response rating: scale of 0 to 10 where 0 is no effect and 10 is complete control
Procedure, shortened: as §1

[7] = tested on: soybean; assay: Test B pre/postemergence soybean; type: in vivo, Glycine max; settings: for Soybean plant response rating: scale of 0 to 10 where 0 is no effect and 10 is complete control
Procedure, shortened: as §1

[8] = tested on: velvetleaf; assay: Test B pre/postemergence velvetleaf; type: in vivo, Abutilon theophrasti; settings: for Velvetleaf plant response rating: scale of 0 to 10 where 0 is no effect and 10 is complete control
Procedure, shortened: as §1

[9] = tested on: giant foxtail; assay: Test B pre/postemergence giant foxtail; type: in vivo, Setaria faberii; settings: for Giant foxtail plant response rating: scale of 0 to 10 where 0 is no effect and 10 is complete control
Procedure, shortened: as §1

[10] = tested on: corn; assay: Test B pre/postemergence corn; type: in vivo, Zea mays; settings: for Corn plant response rating: scale of 0 to 10 where 0 is no effect and 10 is complete control
Procedure, shortened: as §1

[11] = tested on: duck salad; assay: Test B flood test duck salad; type: in vivo, Heteranthera limosa
Procedure, shortened: (§2)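 Read-out is a visual response score from 0 (no effect) to 10 (complete control), assigned by comparison with untreated controls. Treatment was applied at the 2-leaf stage, and plants stayed in the greenhouse for twelve to sixteen days before scoring.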

[12] = tested on: crabgrass; assay: Test B pre/postemergence crabgrass; type: in vivo, Digitaria sanguinalis; settings: for Crabgrass plant response rating: scale of 0 to 10 where 0 is no effect and 10 is complete control
Procedure, shortened: as §1

[13] = tested on: rape; assay: Test B pre/postemergence rape; type: in vivo, Brassica napus; settings: for Rape plant response rating: scale of 0 to 10 where 0 is no effect and 10 is complete control
Procedure, shortened: as §1

[14] = tested on: surinam grass; assay: Test B pre/postemergence surinam grass; type: in vivo, Brachiaria decumbens
Procedure, shortened: as §1

[15] = tested on: bamyardgrass; assay: Test B flood test barnyardgrass; type: in vivo, Echinochloa crus-galli
Procedure, shortened: as §2

[16] = tested on: wheat; assay: Test B pre/postemergence wheat; type: in vivo, Triticum aestivum; settings: for Wheat plant response rating: scale of 0 to 10 where 0 is no effect and 10 is complete control
Procedure, shortened: as §1

[17] = tested on: rice; assay: Test B flood test rice; type: in vivo, Oryza sativa
Procedure, shortened: as §2

[18] = tested on: morningglory; assay: Test B pre/postemergence morningglory; type: in vivo, Ipomoea hederacea; settings: for Morningglory plant response rating: scale of 0 to 10 where 0 is no effect and 10 is complete control
Procedure, shortened: as §1

[19] = tested on: purple nutsedge; assay: Test B pre/postemergence purple nutsedge; type: in vivo, Cyperus rotundus; settings: for Nutsedge plant response rating: scale of 0 to 10 where 0 is no effect and 10 is complete control
Procedure, shortened: as §1

[20] = tested on: smallflower flatsedge; assay: Test B flood test smallflower flatsedge; type: in vivo, Cyperus difformis
Procedure, shortened: as §2

[21] = Postemergence, Rate 125 g/ha, scale 0 to 10, 0 is no effect, 10 is complete control
[22] = Preemergence, Rate 62 g/ha, scale 0 to 10 (0 no effect, 10 complete control)
[23] = Rate 500 g/ha, Postemergence, scale 0 to 10, 0 no effect, 10 complete control
[24] = Preemergence, Rate 250 g/ha, scale of 0 to 10 where 0 is no effect and 10 is complete control
[25] = Preemergence, Rate 500 g/ha, scale of 0 to 10 where 0 is no effect and 10 is complete control
[26] = Rate 62 g/ha, Postemergence, scale of 0 to 10 where 0 is no effect and 10 is complete control
[27] = Rate 250 g/ha, Postemergence, scale of 0 to 10 where 0 is no effect and 10 is complete control
[28] = Postemergence (flood test), Rate 125 g/ha, scale 0 to 10, 0 is no effect, 10 is complete control
[29] = Rate 500 g/ha, listed under Postemergence (flood test species), scale 0 to 10, 0 no effect, 10 complete control

SMILES: CC(C)C(C)n1c(=O)on(C(=O)N(c2ccc(F)cc2F)C(C)C)c1=O (centres unmarked) [Compound 356]
- Plant response rating, Wild oats [1, 21]: 3
- Plant response rating, Wild oats [1, 22]: 5
- Wild oats plant response rating (0 to 10 scale) ([1]; Preemergence, Rate 125 g/ha): 7
- Wild oats plant response rating ([1]; Preemergence, Rate 250 g/ha): 10
- Wild oats plant response rating ([1]; Rate 62 g/ha, Postemergence): 2
- Plant response rating, Wild oats [1, 23]: 3
- Plant response rating, Blackgrass [2, 21]: 6
- Plant response rating, Blackgrass [2, 22]: 5
- Blackgrass plant response rating (0 to 10 scale) ([2]; Preemergence, Rate 125 g/ha): 6
- Blackgrass plant response rating [2, 24]: 9
- Blackgrass plant response rating [2, 25]: 9
- Blackgrass plant response rating [2, 26]: 3
- Plant response rating, Blackgrass [2, 27]: 6
- Plant response rating, Blackgrass [2, 23]: 7
- Plant response rating, Bedstraw [3, 21]: 0
- Plant response rating, Bedstraw [3, 22]: 0
- Bedstraw plant response rating (0 to 10 scale) ([3]; Preemergence, Rate 125 g/ha): 0
- Bedstraw plant response rating [3, 25]: 9
- Bedstraw plant response rating [3, 26]: 0
- Plant response rating, Bedstraw [3, 27]: 3
- Plant response rating, Bedstraw [3, 23]: 3
- Plant response rating, Sugarbeets [4, 21]: 0
- Plant response rating, Sugarbeets [4, 22]: 0
- Sugarbeets plant response rating (0 to 10 scale) ([4]; Preemergence, Rate 125 g/ha): 0
- Sugarbeets plant response rating ([4]; Preemergence, Rate 250 g/ha): 2
- Sugarbeets plant response rating ([4]; Preemergence, Rate 500 g/ha): 5
- Sugarbeets plant response rating ([4]; Rate 62 g/ha, Postemergence): 0
- Plant response rating, Sugarbeets [4, 23]: 0
- Plant response rating, Cocklebur [5, 21]: 0
- Cocklebur plant response rating (0 to 10 scale) ([5]; Preemergence, Rate 125 g/ha): 0
- Cocklebur plant response rating ([5]; Preemergence, Rate 250 g/ha): 0
- Cocklebur plant response rating ([5]; Preemergence, Rate 500 g/ha): 0
- Cocklebur plant response rating ([5]; Rate 62 g/ha, Postemergence): 0
- Plant response rating, Cocklebur [5, 23]: 0
- Plant response rating, Redroot pigweed [6, 21]: 0
- Plant response rating, Redroot pigweed [6, 22]: 0
- Redroot pigweed plant response rating (0 to 10 scale) ([6]; Preemergence, Rate 125 g/ha): 4
- Redroot pigweed plant response rating ([6]; Preemergence, Rate 250 g/ha): 8
- Redroot pigweed plant response rating ([6]; Preemergence, Rate 500 g/ha): 10
- Redroot pigweed plant response rating ([6]; Rate 62 g/ha, Postemergence): 0
- Plant response rating, Redroot pigweed [6, 23]: 0
- Plant response rating, Soybean [7, 21]: 3
- Plant response rating, Soybean [7, 22]: 0
- Soybean plant response rating (0 to 10 scale) ([7]; Preemergence, Rate 125 g/ha): 0
- Soybean plant response rating ([7]; Preemergence, Rate 250 g/ha): 0
- Soybean plant response rating ([7]; Preemergence, Rate 500 g/ha): 0
- Soybean plant response rating ([7]; Rate 62 g/ha, Postemergence): 2
- Plant response rating, Soybean [7, 23]: 5
- Plant response rating, Velvetleaf [8, 21]: 0
- Plant response rating, Velvetleaf [8, 22]: 1
- Velvetleaf plant response rating (0 to 10 scale) ([8]; Preemergence, Rate 125 g/ha): 2
- Velvetleaf plant response rating ([8]; Preemergence, Rate 250 g/ha): 3
- Velvetleaf plant response rating ([8]; Preemergence, Rate 500 g/ha): 5
- Velvetleaf plant response rating ([8]; Rate 62 g/ha, Postemergence): 0
- Plant response rating, Velvetleaf [8, 23]: 0
- Plant response rating, Giant foxtail [9, 21]: 4
- Plant response rating, Giant foxtail [9, 22]: 10
- Giant foxtail plant response rating (0 to 10 scale) ([9]; Preemergence, Rate 125 g/ha): 10
- Giant foxtail plant response rating ([9]; Preemergence, Rate 250 g/ha): 10
- Giant foxtail plant response rating ([9]; Preemergence, Rate 500 g/ha): 10
- Giant foxtail plant response rating ([9]; Rate 62 g/ha, Postemergence): 2
- Plant response rating, Giant foxtail [9, 23]: 8
- Plant response rating, Corn [10, 21]: 0
- Plant response rating, Corn [10, 22]: 0
- Corn plant response rating (0 to 10 scale) ([10]; Preemergence, Rate 125 g/ha): 0
- Corn plant response rating ([10]; Preemergence, Rate 250 g/ha): 2
- Corn plant response rating ([10]; Preemergence, Rate 500 g/ha): 6
- Corn plant response rating ([10]; Rate 62 g/ha, Postemergence): 0
- Plant response rating, Corn [10, 23]: 3
- Plant response rating, Ducksalad [11, 28]: 0
- Plant response rating, Ducksalad [11, 29]: 2
- Plant response rating, Crabgrass [12, 21]: 0
- Plant response rating, Crabgrass [12, 22]: 7
- Crabgrass plant response rating (0 to 10 scale) ([12]; Preemergence, Rate 125 g/ha): 8
- Crabgrass plant response rating ([12]; Preemergence, Rate 250 g/ha): 9
- Crabgrass plant response rating ([12]; Preemergence, Rate 500 g/ha): 10
- Crabgrass plant response rating ([12]; Rate 62 g/ha, Postemergence): 0
- Plant response rating, Crabgrass [12, 23]: 3
- Plant response rating, Rape [13, 21]: 0
- Plant response rating, Rape [13, 22]: 0
- Rape plant response rating (0 to 10 scale) ([13]; Preemergence, Rate 125 g/ha): 2
- Rape plant response rating ([13]; Preemergence, Rate 250 g/ha): 4
- Rape plant response rating ([13]; Preemergence, Rate 500 g/ha): 5
- Rape plant response rating ([13]; Rate 62 g/ha, Postemergence): 0
- Plant response rating, Rape [13, 23]: 0
- Plant response rating, B. signalgrass [14, 21]: 0
- Plant response rating, B. signalgrass [14, 22]: 0
- B. signalgrass plant response rating (0 to 10 scale, 0 is no effect, 10 is complete control) ([14]; Preemergence, Rate 125 g/ha): 3
- B. signalgrass plant response rating [14, 24]: 5
- B. signalgrass plant response rating [14, 25]: 5
- B. signalgrass plant response rating [14, 26]: 0
- Plant response rating, B. signalgrass [14, 27]: 1
- Plant response rating, B. signalgrass [14, 23]: 1
- Plant response rating, Barnyardgrass [15, 28]: 0
- Plant response rating, Barnyardgrass ([15]; Rate 250 g/ha, Postemergence (flood test species), scale of 0 to 10 where 0 is no effect and 10 is complete control): 7
- Plant response rating, Barnyardgrass [15, 29]: 7
- Plant response rating, Wheat [16, 21]: 3
- Plant response rating, Wheat [16, 22]: 0
- Wheat plant response rating (0 to 10 scale) ([16]; Preemergence, Rate 125 g/ha): 0
- Wheat plant response rating ([16]; Preemergence, Rate 250 g/ha): 0
- Wheat plant response rating ([16]; Preemergence, Rate 500 g/ha): 6
- Wheat plant response rating ([16]; Rate 62 g/ha, Postemergence): 2
- Plant response rating, Wheat [16, 23]: 4
- Plant response rating, Rice [17, 28]: 0
- Rice plant response rating ([17]; Rate 62 g/ha, Postemergence (flood test species), scale of 0 to 10 where 0 is no effect and 10 is complete control): 0
- Plant response rating, Rice [17, 29]: 0
- Plant response rating, Morningglory [18, 21]: 6
- Plant response rating, Morningglory [18, 22]: 0
- Morningglory plant response rating (0 to 10 scale) ([18]; Preemergence, Rate 125 g/ha): 0
- Morningglory plant response rating ([18]; Preemergence, Rate 250 g/ha): 0
- Morningglory plant response rating ([18]; Preemergence, Rate 500 g/ha): 0
- Morningglory plant response rating ([18]; Rate 62 g/ha, Postemergence): 4
- Plant response rating, Morningglory [18, 23]: 10
- Plant response rating, Nutsedge [19, 21]: 0
- Plant response rating, Nutsedge [19, 22]: 0
- Nutsedge plant response rating (0 to 10 scale) ([19]; Preemergence, Rate 125 g/ha): 0
- Nutsedge plant response rating ([19]; Preemergence, Rate 250 g/ha): 0
- Nutsedge plant response rating ([19]; Preemergence, Rate 500 g/ha): 0
- Nutsedge plant response rating ([19]; Rate 62 g/ha, Postemergence): 0
- Plant response rating, Nutsedge [19, 23]: 0
- Plant response rating, S. Flatsedge [20, 28]: 4
- Plant response rating, S. Flatsedge [20, 29]: 7
